Assay results taken from patent US12110295B2, “WD40 repeat domain protein 5 (WDR5) degradation/disruption compounds and methods of use” (Icahn School of Medicine at Mount Sinai, priority 2018, dated 2024).

Biological target: WDR5 (Homo sapiens, UniProt P61964)
Assay: Screening of putative WDR5 degraders by Western blot in MV4;11 and/or MIAPACA2 cells
Format: cell-based
Design: After WDR5 degrader treatment, cells were collected and lysed; endogenous in cells; host or cells: MV4;11 and/or MIAPACA2
Settings: summary of screening, FIGS. 6-10
Summary of the method: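 MV4;11 (1×10^6/well) or MIAPACA2 (1×10^5/well) cells treated 18 h with compound at paired doses between 0.1 and 10 μM, DMSO as control. Total lysates immunoblotted for WDR5 with vinculin, tubulin or GAPDH loading controls; fluorescent secondary detection.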

**Q.** With `Cc1ncsc1-c1ccc(CNC(=O)[C@@H]2C[C@@H](O)CN2C(=O)[C@@H](NC(=O)CCOCCOCCOCCC(=O)NCCN2CCN(Cc3ccc(F)c(-c4ccc(N5C[C@@H](C)N(C)[C@@H](C)C5)c(NC(=O)c5c[nH]c(=O)cc5C(F)(F)F)c4)c3)CC2)C(C)(C)C)cc1` [XF078-6, N-(2′-fluoro-5′-((4-((S)-18-((2S,4R)-4-hydroxy-2-((4-(4-methylthiazol-5-yl)benzyl)carbamoyl)pyrrolidine-1-carbonyl)-19,19-dimethyl-4,16-dioxo-7,10,13-trioxa-3,17-diazaicosyl)piperazin-1-yl)methyl)-4-((3S,5R)-3,4,5-trimethylpiperazin-1-yl)-[1,1′-biphenyl]-3-yl)-6-oxo-4-(trifluoromethyl)-1,6-dihydropyridine-3-carboxamide] as the compound, how does the “effective degradation of WDR5 in MV4;11 and/or MIAPACA2 cells” value (shortened to “effective degradation of WDR5”) read?
**A.** The value was “able to effectively degrade WDR5”.

**Q.** How did the “effective degradation of WDR5” value turn out when `Cc1ncsc1-c1ccc(CNC(=O)[C@@H]2C[C@@H](O)CN2C(=O)[C@@H](NC(=O)CCCCCCC(=O)N2CCN(Cc3cnc(N4CC=C(c5cc(NC(=O)c6c[nH]c(=O)cc6C(F)(F)F)c(N6C[C@@H](C)N(C)[C@@H](C)C6)cc5F)CC4)nc3)CC2)C(C)(C)C)cc1` [XF078-145, N-(4-fluoro-5-(1-(5-((4-(8-(((S)-1-((2S,4R)-4-hydroxy-2-((4-(4-methylthiazol-5-yl)benzyl)carbamoyl)pyrrolidin-1-yl)-3,3-dimethyl-1-oxobutan-2-yl)amino)-8-oxooctanoyl)piperazin-1-yl)methyl)pyrimidin-2-yl)-1,2,3,6-tetrahydropyridin-4-yl)-2-((3S,5R)-3,4,5-trimethylpiperazin-1-yl)phenyl)-6-oxo-4-(trifluoromethyl)-1,6-dihydropyridine-3-carboxamide] was run?
**A.** Its value is “able to effectively degrade WDR5”.

**Q.** For `C[C@@H]1CN(c2cc(F)c(-c3cnc(N4CCN(C(=O)CCOCCOCCOCCOCCNc5cccc6c5C(=O)N(C5CCC(=O)NC5=O)C6=O)CC4)nc3)cc2NC(=O)c2ccc(F)cc2C(F)(F)F)C[C@H](C)N1C` (stereo partly drawn) [XF078-126, N-(5-(2-(4-(1-((2-(2,6-dioxopiperidin-3-yl)-1,3-dioxoisoindolin-4-yl)amino)-3,6,9,12-tetraoxapentadecan-15-oyl)piperazin-1-yl)pyrimidin-5-yl)-4-fluoro-2-((3S,5R)-3,4,5-trimethylpiperazin-1-yl)phenyl)-4-fluoro-2-(trifluoromethyl)benzamide], which “effective degradation of WDR5” value is on record?
**A.** The value was “able to effectively degrade WDR5”.

**Q.** `C[C@@H]1CN(c2cc(F)c(C3=CCN(c4ncc(CN5CCN(C(=O)CNc6cccc7c6C(=O)N(C6CCC(=O)NC6=O)C7=O)CC5)cn4)CC3)cc2NC(=O)c2c[nH]c(=O)cc2C(F)(F)F)C[C@H](C)N1C` (stereo partly drawn) [XF078-149, N-(5-(1-(5-((4-((2-(2,6-dioxopiperidin-3-yl)-1,3-dioxoisoindolin-4-yl)glycyl)piperazin-1-yl)methyl)pyrimidin-2-yl)-1,2,3,6-tetrahydropyridin-4-yl)-4-fluoro-2-((3S,5R)-3,4,5-trimethylpiperazin-1-yl)phenyl)-6-oxo-4-(trifluoromethyl)-1,6-dihydropyridine-3-carboxamide] was tested. Which “effective degradation of WDR5” value did it give?
**A.** The value was “able to effectively degrade WDR5”.

**Q.** With `Cc1ncsc1-c1ccc(CNC(=O)[C@@H]2C[C@@H](O)CN2C(=O)[C@@H](NC(=O)CCCCCCCCC(=O)N2CCN(c3ncc(-c4cc(NC(=O)c5ccc(F)cc5C(F)(F)F)c(N5C[C@@H](C)N(C)[C@@H](C)C5)cc4F)cn3)CC2)C(C)(C)C)cc1` [XF078-114, (2S,4R)-1-((S)-2-(10-(4-(5-(2-fluoro-5-(4-fluoro-2-(trifluoromethyl)benzamido)-4-((3S,5R)-3,4,5-trimethylpiperazin-1-yl)phenyl)pyrimidin-2-yl)piperazin-1-yl)-10-oxodecanamido)-3,3-dimethylbutanoyl)-4-hydroxy-N-(4-(4-methylthiazol-5-yl)benzyl)pyrrolidine-2-carboxamide] as the compound, how does the “effective degradation of WDR5” value read?
**A.** The value was “able to effectively degrade WDR5”.

**Q.** With `Cc1ncsc1-c1ccc(CNC(=O)[C@@H]2C[C@@H](O)CN2C(=O)[C@@H](NC(=O)CCCCC(=O)N2CCN(c3ncc(-c4cc(NC(=O)c5ccc(F)cc5C(F)(F)F)c(N5C[C@@H](C)N(C)[C@@H](C)C5)cc4F)cn3)CC2)C(C)(C)C)cc1` [XF078-110, (2S,4R)-1-((S)-2-(6-(4-(5-(2-fluoro-5-(4-fluoro-2-(trifluoromethyl)benzamido)-4-((3S,5R)-3,4,5-trimethylpiperazin-1-yl)phenyl)pyrimidin-2-yl)piperazin-1-yl)-6-oxohexanamido)-3,3-dimethylbutanoyl)-4-hydroxy-N-(4-(4-methylthiazol-5-yl)benzyl)pyrrolidine-2-carboxamide] as the compound, how does the “effective degradation of WDR5” value read?
**A.** Its value is “able to effectively degrade WDR5”.

**Q.** Which “effective degradation of WDR5” value does the source give for `C[C@@H]1CN(c2cc(F)c(C3=CCN(c4ncc(CN5CCN(C(=O)CCNc6cccc7c6C(=O)N(C6CCC(=O)NC6=O)C7=O)CC5)cn4)CC3)cc2NC(=O)c2c[nH]c(=O)cc2C(F)(F)F)C[C@H](C)N1C` (stereo partly drawn) [XF078-150, N-(5-(1-(5-((4-(3-((2-(2,6-dioxopiperidin-3-yl)-1,3-dioxoisoindolin-4-yl)amino)propanoyl)piperazin-1-yl)methyl)pyrimidin-2-yl)-1,2,3,6-tetrahydropyridin-4-yl)-4-fluoro-2-((3S,5R)-3,4,5-trimethylpiperazin-1-yl)phenyl)-6-oxo-4-(trifluoromethyl)-1,6-dihydropyridine-3-carboxamide] here?
**A.** Its value is “able to effectively degrade WDR5”.

**Q.** How did the “effective degradation of WDR5” value turn out when `Cc1ncsc1-c1ccc(CNC(=O)[C@@H]2C[C@@H](O)CN2C(=O)[C@@H](NC(=O)CCCC(=O)N2CCN(Cc3cnc(N4CC=C(c5cc(NC(=O)c6c[nH]c(=O)cc6C(F)(F)F)c(N6C[C@@H](C)N(C)[C@@H](C)C6)cc5F)CC4)nc3)CC2)C(C)(C)C)cc1` [XF078-142, N-(4-fluoro-5-(1-(5-((4-(5-(((S)-1-((2S,4R)-4-hydroxy-2-((4-(4-methylthiazol-5-yl)benzyl)carbamoyl)pyrrolidin-1-yl)-3,3-dimethyl-1-oxobutan-2-yl)amino)-5-oxopentanoyl)piperazin-1-yl)methyl)pyrimidin-2-yl)-1,2,3,6-tetrahydropyridin-4-yl)-2-((3S,5R)-3,4,5-trimethylpiperazin-1-yl)phenyl)-6-oxo-4-(trifluoromethyl)-1,6-dihydropyridine-3-carboxamide] was run?
**A.** The value was “able to effectively degrade WDR5”.

**Q.** `C[C@@H]1CN(c2ccc(-c3cc(CN4CCN(CCNC(=O)CCCCCCNc5cccc6c5C(=O)N(C5CCC(=O)NC5=O)C6=O)CC4)ccc3F)cc2NC(=O)c2c[nH]c(=O)cc2C(F)(F)F)C[C@H](C)N1C` (stereo partly drawn) [XF078-23, N-(5′-((4-(2-(7-((2-(2,6-dioxopiperidin-3-yl)-1,3-dioxoisoindolin-4-yl)amino)heptanamido)ethyl)piperazin-1-yl)methyl)-2′-fluoro-4-((3S,5R)-3,4,5-trimethylpiperazin-1-yl)-[1,1′-biphenyl]-3-yl)-6-oxo-4-(trifluoromethyl)-1,6-dihydropyridine-3-carboxamide] was tested. Which “effective degradation of WDR5” value did it give?
**A.** Its value is “able to effectively degrade WDR5”.

**Q.** For `Cc1ncsc1-c1ccc(CNC(=O)[C@@H]2C[C@@H](O)CN2C(=O)[C@@H](NC(=O)CCCCC(=O)NCCN2CCN(Cc3ccc(F)c(-c4ccc(N5C[C@@H](C)N(C)[C@@H](C)C5)c(NC(=O)c5c[nH]c(=O)cc5C(F)(F)F)c4)c3)CC2)C(C)(C)C)cc1` [XF078-12, N^1-(2-(4-((6-fluoro-3′-(6-oxo-4-(trifluoromethyl)-1,6-dihydropyridine-3-carboxamido)-4′-((3S,5R)-3,4,5-trimethylpiperazin-1-yl)-[1,1′-biphenyl]-3-yl)methyl)piperazin-1-yl)ethyl)-N^6-((S)-1-((2S,4R)-4-hydroxy-2-((4-(4-methylthiazol-5-yl)benzyl)carbamoyl)pyrrolidin-1-yl)-3,3-dimethyl-1-oxobutan-2-yl)adipamide], which “effective degradation of WDR5” value is on record?
**A.** The value was “able to effectively degrade WDR5”.

**Q.** With `Cc1ncsc1-c1ccc(CNC(=O)[C@@H]2C[C@@H](O)CN2C(=O)[C@@H](NC(=O)COCCNC(=O)CCC(=O)N2CCN(c3ccc(-c4cc(NC(=O)c5c[nH]c(=O)cc5C(F)(F)F)c(N5C[C@@H](C)N(C)[C@@H](C)C5)cc4F)cn3)CC2)C(C)(C)C)cc1` [XF067-140, N-(4-fluoro-5-(6-(4-(4-((2-(2-(((S)-1-((2S,4R)-4-hydroxy-2-((4-(4-methylthiazol-5-yl)benzyl)carbamoyl)pyrrolidin-1-yl)-3,3-dimethyl-1-oxobutan-2-yl)amino)-2-oxoethoxy)ethyl)amino)-4-oxobutanoyl)piperazin-1-yl)pyridin-3-yl)-2-((3S,5R)-3,4,5-trimethylpiperazin-1-yl)phenyl)-6-oxo-4-(trifluoromethyl)-1,6-dihydropyridine-3-carboxamide] as the compound, how does the “effective degradation of WDR5” value read?
**A.** Its value is “able to effectively degrade WDR5”.

**Q.** `Cc1ncsc1-c1ccc(CNC(=O)[C@@H]2C[C@@H](O)CN2C(=O)[C@@H](NC(=O)COCCNC(=O)CCC(=O)N2CCN(c3ncc(-c4cc(NC(=O)c5c[nH]c(=O)cc5C(F)(F)F)c(N5C[C@@H](C)N(C)[C@@H](C)C5)cc4F)cn3)CC2)C(C)(C)C)cc1` [XF078-61, N-(4-fluoro-5-(2-(4-(4-((2-(2-(((S)-1-((2S,4R)-4-hydroxy-2-((4-(4-methylthiazol-5-yl)benzyl)carbamoyl)pyrrolidin-1-yl)-3,3-dimethyl-1-oxobutan-2-yl)amino)-2-oxoethoxy)ethyl)amino)-4-oxobutanoyl)piperazin-1-yl)pyrimidin-5-yl)-2-((3S,5R)-3,4,5-trimethylpiperazin-1-yl)phenyl)-6-oxo-4-(trifluoromethyl)-1,6-dihydropyridine-3-carboxamide] was tested. Which “effective degradation of WDR5” value did it give?
**A.** The value was “able to effectively degrade WDR5”.
